In patent publication US11369662B2 (The Medical College of Wisconsin, Inc., priority 2014, dated 2022):
Where “and” joins values, the source holds several entries; their conditions need not be identical. Equal entries are not always repeated. Marks after values point to notes of the source that are not given here. Non-standard residues stand in square brackets, D forms with d. Residues, ends and D or L forms follow the SMILES beside them. sY = N[C@@H](Cc1ccc(OS(=O)(=O)O)cc1)C(=O)O

Experiments:
CXCL12WT [1] = target: T1, CXCL12WT (Homo sapiens, UniProt P48061); experiment: 2D NMR (1H-15N HSQC) titration of CXCR4 peptides into CXCL12WT; assay type: binding; conditions: for ΔG: ΔG = −RT ln Kd @ 298 K
T1 construct: made in house
Protocol: (§1) NMR spectroscopy. All NMR spectra were acquired on a Bruker DRX 600 MHz spectrometer equipped with a ^1H, ^15N, ^13C TXI cryoprobe at 298 K. Experiments were performed with either 50 μM [U-^15N]-CXCL12WT, -CXCL121, or -CXCL122 proteins in a solution containing 25 mM deuterated MES (pH 6.8), 10% (v/v) D2O, and 0.02% (w/v) NaN3. Full-length CXCR41-38 peptide titrations required 20 μM [U-^15N]-CXCL121 and -CXCL122 protein samples. Sulfated CXCR4 peptides were reconstituted at 100 mM in 25 mM deuterated MES, 10% (v/v) D2O, and 0.02% (w/v) NaN3 buffer. Unsulfated CXCR4 peptides were similarly reconstituted to 15 mM. Two separate 4ISIYTSD10 (SEQ ID NO:8) peptide samples were reconstituted at 10 mM and 15 mM peptide in 25 mM deuterated MES, 10% (v/v) D20, 0.02% (w/v) NaN3 buffer, from lyophilized powder.
(§2) Total peptide additions differed for individual peptide titrations but ranged from 0-160 equivalencies. Spectra were processed using in-house scripts and chemical shift tracking was performed using CARA software. Combined ^1H/^15N chemical shift perturbations were calculated as ((5 ΔδH)^2+(ΔδNH)^2)^0.5, where δH and δNH are the amide proton and nitrogen chemical shifts, respectively. Equilibrium dissociation constants (Kd) were determined by non-linear fitting of the combined ^1H/^15NH chemical shift perturbations as a function of peptide concentration to a single-site quadratic equation. For a given interaction, residues with the largest chemical shift perturbations were fitted individually. The resulting Kd values and their respective fitting errors were then averaged to produce the reported affinity and standard deviation for that interaction.

CXCL122 = target: T2, CXCL122 (Homo sapiens, UniProt P48061, A86C/L57C); experiment: 2D NMR (1H-15N HSQC) titration of CXCR4 peptides into CXCL122; assay type: binding; conditions: for ΔG: ΔG = −RT ln Kd @ 298 K
T2 construct: made in house
Protocol: as §1, §2

CXCL121 = target: T3, CXCL121 (Homo sapiens, UniProt P48061, I79C/L76C); experiment: 2D NMR (1H-15N HSQC) titration of CXCR4 peptides into CXCL121; assay type: binding; conditions: for ΔG: ΔG = −RT ln Kd @ 298 K
T3 construct: made in house
Protocol: as §1, §2

CXCL12WT dimerization = target: T4, CXCL12WT dimerization (Homo sapiens, UniProt P48061); experiment: Intrinsic tryptophan fluorescence polarization assay of CXCL12WT dimerization; assay type: binding; conditions: for coupling energy linking CXCL12 dimerization to sTyr21 pocket binding: thermodynamic cycle
T4 construct: made in house
Protocol: Fluorescence polarization assay. Fluorescence polarization (FP) assays were performed on a PTI spectrofluorometer equipped with automated polarizers, using a time base polarization method provided by the program Felix32. […] Experiments were performed in duplicate and the reported dimerization Kd values reflect the average of both experiments.

CXCL12WT [2] = target: T1, CXCL12WT; conditions: ΔG = −RT ln Kd @ 298 K; calculated from Veldkamp et al. (32); cited from earlier work
THP-1 cells = experiment: THP-1 chemotaxis (Transwell); assay type: cell-based; conditions: 3 h stimulation
Protocol: THP-1 chemotaxis. Chemotaxis experiments were performed using Tranwell ([…]; Costar) in 24-well format. […] THP-1 cells were washed twice and […] cells were added to the upper chamber. Plates were incubated for 3 h at 37° C., 5% CO2. Following incubation, Transwell membranes were removed and cells that migrated into the lower chamber were counted using a TC-10 Automated Cell Counter (BioRad) and hemocytometer. The chemotactic index was calculated as the difference in migrated cell number between those exposed to chemokine and the vehicle control.

NALM6 cells = experiment: NALM6 chemotaxis (Boyden chamber); assay type: cell-based; conditions: 90 min stimulation; relative to CXCL12WT
Protocol: NALM6 chemotaxis. NALM6 cells were grown in RPMI-1640 supplemented with 10% FBS, 100 U/mL penicillin-streptomycin, 2 mM glutamine, 50 μM […], non-essential amino acids, 1 mM Na-pyruvate and 25 mM HEPES buffer (pH 7.3). Chemotaxis assays were performed in triplicate in 48-well Boyden chambers (NeuroProbe), using 5 μm pore-sized polyvinylpyrrolidone-free polycarbonate membranes. […] Cells ([…] per well) resuspended in chemotaxis medium were added to the upper well and incubated for 90 min at 37° C. in 5% CO2 atmosphere. Cells were removed from the upper part of the membrane with a rubber policeman. Cells attached to the lower side of the membrane were fixed and stained as described. Migrated cells were counted in five randomly selected fields of 1000-fold magnification.
NALM6 chemotaxis. NALM6 cells were grown in RPMI-1640 supplemented with 10% FBS, 100 U/mL penicillin-streptomycin, 2 mM glutamine, 50 μM 2-mercaptoethanol, non-essential amino acids, 1 mM Na-pyruvate and 25 mM HEPES buffer (pH 7.3). Chemotaxis assays were performed in triplicate in 48-well Boyden chambers (NeuroProbe), using 5 μm pore-sized polyvinylpyrrolidone-free polycarbonate membranes. […] Migrated cells were counted in five randomly selected fields of 1000-fold magnification.

U-937 cells = experiment: Agarose microdroplet assay of U-937 migration; assay type: cell-based
Protocol: Agarose microdroplet assay. The agarose microdroplet assay was performed to determine U-937 cellular migration, as previously described. 0.5×10^6 cells/ml U-937 target cells were harvested and washed in HBSS. Cells were spun at 2,000 rpm and were transferred to a graduated 15 ml glass conical tube. The cell concentration was adjusted in agarose medium, prepared from 2% low melting temperature Seaplaque agarose and medium containing 15% FBS, using a 1:4 volume-to-volume dilution. A 1 μl agarose droplet containing 1-10^5 target cells was placed in the center of each well of a 96-well flat-bottom tissue culture plate, in triplicate, using a gastight 0.05 ml Hamilton syringe (Hamilton Company, Reno, Nev.). Droplets were allowed to harden at 4° C. for 20 min. 200 μl chilled test media was applied to each well. […] The plate was incubated for 18-24 h at 37° C. and 5% CO2. Following incubation, the radius of each droplet was determined and target cell migration was measured at four directional points 900 from one another, using an inverted light microscope equipped with a gridded eyepiece, at 40× total magnification. Percent inhibition of each sample was quantified. The plate was incubated for an additional 24 h to measure recovery, and viability was determined by trypan blue exclusion.
Agarose microdroplet assay. The agarose microdroplet assay was performed to determine U-937 cellular migration, as previously described {AdeCXCL121an, 1980 #1609}. 0.5×10^6 cells/ml U-937 target cells were harvested and washed in HBSS. Cells were spun at 2,000 rpm and were transferred to a graduated 15 ml glass conical tube. […] Following incubation, the radius of each droplet was determined and target cell migration was measured at four directional points 900 from one another, using an inverted light microscope equipped with a gridded eyepiece, at 40× total magnification. Percent inhibition of each sample was quantified. The plate was incubated for an additional 24 h to measure recovery, and viability was determined by trypan blue exclusion.

KG1a cells = experiment: Apoptosis assays in KG1a cells expressing CXCR4-YFP; assay type: cell-based, human; conditions: 100 ng/ml
Protocol: Apoptosis assays. KG1a (human acute myelogenous leukemia) cells were assayed for CXCL12-dependent apoptosis as previously described. Briefly, CXCR4 expression on KG1a cells was achieved via transient transfection with a plasmid encoding a CXCR4-YFP fluorescent fusion protein. […] Apoptosis was assayed by staining cells with APC-conjugated annexin V to detect cell-surface phosphatidyl serine (BD Biosciences) or Alexaflour-647-conjugated antibody to detect cleaved PARP (BD Biosciences), and the percentage of YFP+ cells undergoing apoptosis was determined by flow cytometry.

MiaPaCa2 cells = experiment: MiaPaCa2 chemotaxis (Transwell); assay type: cell-based; conditions: 6 h stimulation; relative to CXCL12WT
Protocol: MiaPaCa2 chemotaxis. Chemotactic migration of pancreatic cancer MiaPaCa2 cells was performed as previously described using Transwell plates coated with 15 ug/ml collagen. Briefly, MiaPaCa2 cells were serum starved for 2 hours, lifted using enzyme-free dissociation buffer, washed and then counted using a hemocytometer. 100,000 cells in 10 uL of serum free media were plated into the top chamber of each Transwell. The bottom chamber of each Transwell contained each stimulant in 500 uL serum free media. MiaPaCa2 cells were allowed to migrate for 6 hours, after which the cells remaining on the top of the chamber were swabbed out. Plates were then fixed in 4% paraformaldehyde and stained with DAPI. Migrated cells were visualized and counted by fluorescence microscopy, with 5 representative high-powered fields taken per well.

[3] = unsulfated vs sulfated Tyr7 peptide

Compound | ΔG (CXCL12WT [1]) [kcal/mol] | ΔG (CXCL122) | ΔG (CXCL121) [kcal/mol] | further results
CC[C@H](C)[C@H](NC(C)=O)C(=O)N[C@@H](CO)C(=O)N[C@H](C(=O)N[C@@H](Cc1ccc(OS(=O)(=O)O)cc1)C(=O)N[C@H](C(=O)N[C@@H](CO)C(=O)N[C@@H](CC(=O)O)C(N)=O)[C@@H](C)O)[C@@H](C)CC [4ISIsYTSD10] (Ac-ISI[sY]TSD-NH2) | -3.22 | -4.65 kcal/mol | -3.02 | 
Ac-ISIYTSD-NH2 [4ISIYTSD10] | -3.71 | -4.60 kcal/mol | -4.03 | affinity for CXCL12WT relative to the sTyr7 sulfopeptide (CXCL12WT [1]; [3]): two-fold higher affinity; binding to CXCL121 relative to the sTyr7 sulfopeptide (CXCL121; [3]): roughly five-fold stronger
Ac-SDNYTEE-NH2 [9SDNYTEE15] | -3.65 | -4.74 kcal/mol | -3.50 | 
Ac-SGDYDSM-NH2 [18SGDYDSM24] | -3.50 | -4.2 kcal/mol and -4.20 kcal/mol | -3.85 | 
CXCL121: constitutively monomeric CXCL12 variant with L55C and I58C substitutions (SEQ ID NO:2) |  |  |  | extension of the effective chemotactic dose (THP-1 cells): at least 10 fold; extension of the effective chemotactic dose (NALM6 cells): at least 10 fold; effect on U-937 cell migration (U-937 cells; all tested concentrations, 18-24 h, serum-containing media): significantly enhanced migration; concentration of peak migration enhancement (U-937 cells; bell-shaped dose response): 25 nM; cleavage of PARP (KG1a cells): significantly greater than CXCL122; extension of the effective chemotactic dose (MiaPaCa2 cells): at least 10 fold

Now from value to compound, other results behind:

ΔG (CXCL12WT [1]) [kcal/mol] | ΔG (CXCL122) | ΔG (CXCL121) [kcal/mol] | Compound | further results
-4.09 | -4.87 kcal/mol | -3.74 | CC(=O)N[C@@H](CO)C(=O)N[C@@H](CC(=O)O)C(=O)N[C@@H](CC(N)=O)C(=O)N[C@@H](Cc1ccc(OS(=O)(=O)O)cc1)C(=O)N[C@H](C(=O)N[C@@H](CCC(=O)O)C(=O)N[C@@H](CCC(=O)O)C(N)=O)[C@@H](C)O [9SDNsYTEE15] (Ac-SDN[sY]TEE-NH2) | 
-3.74 | -5.01 kcal/mol | -3.81 | CSCC[C@H](NC(=O)[C@H](CO)NC(=O)[C@H](CC(=O)O)NC(=O)[C@H](Cc1ccc(OS(=O)(=O)O)cc1)NC(=O)[C@H](CC(=O)O)NC(=O)CNC(=O)[C@H](CO)NC(C)=O)C(N)=O [18SGDsYDSM24] (Ac-SGD[sY]DSM-NH2) | increase of CXCL12 dimerization affinity (CXCL12WT dimerization; by sTyr21 sulfopeptide): eight-fold; coupling energy linking CXCL12 dimerization to sTyr21 pocket binding (CXCL12WT dimerization; first value): −1.2 kcal mol^−; coupling energy linking CXCL12 dimerization to sTyr21 pocket binding (CXCL12WT dimerization; second value): −1.0 kcal mol^−; binding to CXCL122 relative to CXCL12WT or CXCL121 (CXCL122; fold stronger): 20 fold; ΔGbind (CXCL122; pathway 2: binding to dimerized CXCL12, 298 K): −5.0 kcal mol^−; binding to CXCL122 relative to the unsulfated variant (CXCL122; sulfated vs unsulfated Tyr21 peptide): four-fold stronger; ΔGbind (CXCL121; pathway 1: binding to CXCL12 before dimerization, 298 K): −3.8 kcal mol^−
 | -8.24 kcal/mol | -7.43 | CC[C@H](C)[C@H](NC(=O)CNC(=O)[C@H](CCC(=O)O)NC(=O)[C@H](CCSC)NC(=O)[C@H](CCSC)NC(=O)CN)C(=O)N[C@@H](CO)C(=O)N[C@H](C(=O)N[C@@H](Cc1ccc(O)cc1)C(=O)N[C@H](C(=O)N[C@@H](CO)C(=O)N[C@@H](CC(=O)O)C(=O)N[C@@H](CC(N)=O)C(=O)N[C@@H](Cc1ccc(O)cc1)C(=O)N[C@H](C(=O)N[C@@H](CCC(=O)O)C(=O)N[C@@H](CCC(=O)O)C(=O)N[C@@H](CCSC)C(=O)NCC(=O)N[C@@H](CO)C(=O)NCC(=O)N[C@@H](CC(=O)O)C(=O)N[C@@H](Cc1ccc(O)cc1)C(=O)N[C@@H](CC(=O)O)C(=O)N[C@@H](CO)C(=O)N[C@@H](CCSC)C(=O)N[C@@H](CCCCN)C(=O)N[C@@H](CCC(=O)O)C(=O)N1CCC[C@H]1C(=O)N[C@@H](C)C(=O)N[C@@H](Cc1ccccc1)C(=O)N[C@@H](CCCNC(=N)N)C(=O)N[C@@H](CCC(=O)O)C(=O)N[C@@H](CCC(=O)O)C(=O)N[C@@H](CC(N)=O)C(=O)N[C@@H](C)C(=O)N[C@@H](CC(N)=O)C(=O)N[C@@H](Cc1ccccc1)C(=O)N[C@@H](CC(N)=O)C(=O)N[C@@H](CCCCN)C(=O)O)[C@@H](C)O)[C@@H](C)O)[C@@H](C)CC [CXCR41-38] | ΔG (kcal mol^−1) (CXCL12WT [2]): −7.29* kcal mol^−1
